Measurements as given in US4169941A, “Derivatives of XK-88-5 and process for the production thereof” (Abbott Laboratories, priority 1976, dated 1979).
Converted amounts (≈) assume the structure as drawn. Read-outs that look alike come from different tables or passages of the source.

How the values were obtained:
[1] = system: Bacillus subtilis KY 4273; assay: MIC, agar dilution method (pH 8.0); assay type: cell-based; conditions: KY4273, read-out: minimum inhibitory concentration (MIC)
Excerpt: (§1) The following Table 1 illustrates minimum inhibitory concentrations (MIC) of 2"-N-formyl-XK-88-5 against various Gram-positive and Gram-negative bacteria determined by agar dilution method (pH 8.0).

Escherichia coli KY 4271 = assay: MIC, agar dilution method (pH 8.0); assay type: cell-based; conditions: KY4271, read-out: minimum inhibitory concentration (MIC)
Excerpt: as §1

[2] = system: Klebsiella pheumoniae KY 4275; assay: MIC, agar dilution method (pH 8.0); assay type: cell-based; conditions: KY4275, read-out: minimum inhibitory concentration (MIC)
Excerpt: as §1

Shigella sonnei KY 4281 = assay: MIC, agar dilution method (pH 8.0); assay type: cell-based; conditions: KY4281, read-out: minimum inhibitory concentration (MIC)
Excerpt: as §1

[3] = system: Staphylococcus aureus Ky 4279; assay: MIC, agar dilution method (pH 8.0); assay type: cell-based; conditions: KY4279, read-out: minimum inhibitory concentration (MIC)
Excerpt: as §1

[4] = system: Salmonella typhosa KY 4278; assay: MIC, agar dilution method (pH 8.0); assay type: cell-based; conditions: Salmonella enterica, pH 8, read-out: minimum inhibitory concentration (MIC)
Excerpt: as §1

Proteus vulgaris KY 4277 = assay: MIC, agar dilution method (pH 8.0); assay type: cell-based; conditions: KY4277, read-out: minimum inhibitory concentration (MIC)
Excerpt: as §1

Vibrio percolans KY 4174 = assay: MIC, agar dilution method (pH 8.0); assay type: cell-based; conditions: Comamonas terrigena, KY4174, read-out: minimum inhibitory concentration (MIC)
Excerpt: as §1

[5] = system: Pseudomonas alkaligenes KY 4656; assay: MIC, agar dilution method (pH 8.0); assay type: cell-based; conditions: KY4656, read-out: minimum inhibitory concentration (MIC)
Excerpt: as §1

Erwinia aroideae KY 3241 = assay: MIC, agar dilution method (pH 8.0); assay type: cell-based; conditions: Pectobacterium carotovorum, KY3241, read-out: minimum inhibitory concentration (MIC)
Excerpt: as §1

[6] = system: various Gram-positive and Gram-negative bacteria; assay: antibacterial activity (general statement); assay type: cell-based; conditions: in words
Excerpt: as §1

[7] = system: various Gram-positive and Gram-negative bacteria; conditions: in words; parent antibiotic, background; cited from earlier work

Structure (SMILES)	MIC [1] [µg/mL]	MIC (Escherichia coli KY 4271) [µg/mL]	MIC [2] [µg/mL]	MIC (Shigella sonnei KY 4281) [µg/mL]	MIC [3] [µg/mL]	MIC [4] [µg/mL]	MIC (Proteus vulgaris KY 4277) [µg/mL]	MIC (Vibrio percolans KY 4174) [µg/mL]	MIC [5] [µg/mL]	MIC (Erwinia aroideae KY 3241) [µg/mL]	antibacterial activity [6]	antibacterial activity [7]
COC1COC(OC2C(N)CC(N)C(OC3OC(CN)CC(O)C3N)C2O)C(NC=O)C1N (stereo not drawn) [2"-N-formyl-XK-88-5]	0.32 (≈ 0.669 µM)	2.5 (≈ 5.22 µM)	0.64 (≈ 1.34 µM)	2.5 (≈ 5.22 µM)	0.32 (≈ 0.669 µM)	2.5 (≈ 5.22 µM)	2.5 (≈ 5.22 µM)	10 (≈ 20.9 µM)	2.5 (≈ 5.22 µM)	1.25 (≈ 2.61 µM)	strong antibacterial activity	–
COC1COC(OC2C(N)CC(N)C(OC3OC(CN)CC(O)C3N)C2O)C(N)C1N (stereo not drawn) [XK-88-5]	–	–	–	–	–	–	–	–	–	–	–	high antibacterial activity
